Results on 4 substances are retold here after article PMC3791449, “Mechanism of amyloid β−protein dimerization determined using single−molecule AFM force spectroscopy” (Scientific Reports, 2013).

One data set deals with misfolded Aβ dimers. The experiment in a line: Single-molecule AFM force spectroscopy: rupture force of Aβ dimers. Type of data set: binding, human. How it is done:
The cysteinyl−peptides were covalently immobilized on the tip and the surface via flexible tethers terminated with maleimide groups. […] Peptide aggregation was minimized by using a very low peptide concentration (20 nM) during the coupling reaction with the functionalized mica surface and the tips. Probing was performed by multiple approach−retraction cycles over various spots of the mica surface.
Figures 1−b1 and 1−b2 show typical force curves for non−specific and specific interactions, respectively. Specific rupture events were characterized by the appearance of the event indicated with an arrow in Fig. 1−b2. The rupture peak appears at the distance defined by the extension of the flexible linkers (polyethylene glycol, PEG and maleimide silatrane, MAS) and the segments of the peptides not involved in dimer formation (see Supplementary Methods for specifics). The force−distance curves, as shown in Fig. 1−b2, were analyzed with worm−like chain (WLC) fitting to extract parameters including the rupture force and the contour length. […] The measurements for the [VPV]Aβ40 mutant performed at similar conditions (ionic strength, loading rate, etc.) are shown in Fig. 1d. […] The rupture forces increase with increasing apparent loading rates (Supplementary Fig. S1).
All cysteinyl−Aβ peptides were synthesized using 9−fluorenylmethoxycarbonyl (FMOC) chemistry and purified by reverse phase high performance liquid chromatography (RP−HPLC). The identity and purity (usually > 97%) of the peptides were confirmed by amino acid analysis followed by mass spectrometry and RP−HPLC. Functionalization of AFM tips and mica substrates were prepared according to previously published procedures. Briefly, 20 nM Aβ monomers were immobilized on mica functionalized with aminopropyl silatrane (APS) via PEG 3400 tethers and on AFM tips through maleimide silatrane (MAS). For DFS study, the tip retraction speeds ranged from 100 nm/s to 4000 nm/s. The dwell time was set at 0.3 s when retraction speed reached 1000 nm/s and above. Force curves with rupture event were subject to WLC analysis, as shown below. [drawing 1] Rupture force distributions were fitted with a probability density function: [drawing 2] Dynamic force spectra were fitted with Bell−Evans model[21]: [drawing 3] The energy profiles were reconstructed according to previous papers, using the equation below. [drawing 4] Positions of interacting segments of Aβ monomers within dimers were estimated by subtracting from the measured contour lengths the lengths of all linkers and the distance between N−termini of monomers (see Fig. 1a). The contour length of PEG was estimated with the following equation[28]: [drawing 5] Where Lc(F) is the contour length, Ns is the average number of monomers, Lplanar is the length of monomers with planar conformation, Lhelical is the length of monomers with helical conformation, ΔG(F) is the free energy difference at zero appling force. The Ns is 77 ± 10 for 3400 Da PEG. The Lplanar and Lhelical are 3.58 Å and 2.8 Å, respectively. The ΔG(F) is fixed at 3 kBT. The contour length of PEG was thus estimated to be 22.0 ± 0.9 nm. All error bars represent SEM. Detailed methods can be found in Supplementary Information.
A 50 mM 1−(3−aminopropyl) silatrane (APS) stock solution was prepared by dissolving the APS powder in deionized (DI) water. The 1.67 mM stock solution of maleimide−polyethylene glycol−succinimidyl valerate (MAL−PEG−SVA; 3.4 kDa Laysan Bio Inc, Arab, AL) was prepared in DMSO (Sigma−Aldrich Inc.) and stored at −20°C. The 10 mM Tris (2−carboxyethyl) phosphine (TCEP) hydrochloride (Hampton Research Inc.) and the 2.94 mM solution of maleimide silatrane (MAS) were prepared in DI water and stored at −20°C. A 10 mM stock solution of β−mercaptoethanol was prepared in 10 mM sodium phosphate, pH 7.4 (“phosphate buffer”) and kept at 4°C. Unless otherwise specified, other reagents used in the experiments were of analytical grade from Sigma−Aldrich. […]

Another data set deals with Aβ peptides. As to conditions: cited from earlier work. The text has this:
Aberrant folding (misfolding) and aggregation of amyloid proteins are pathological hallmarks of a large class of neurodegenerative diseases, including Alzheimer's disease (AD) (reviewed in[1][2]). In AD, amyloid precursor proteins are sequentially cleaved by β−secretase and γ−secretase, producing the amyloid β−protein (Aβ)[3]. Aβ peptides contain several alloforms with varying sequences of amino acids, dependent on the cleavage sites of γ−secretase. […] Additional C−terminal modi ... || It is important to compare our data with the aggregation studies of similar Aβ peptide samples.

For data set [1] the following is noted: cited from earlier work. From the text: Aberrant folding (misfolding) and aggregation of amyloid proteins are pathological hallmarks of a large class of neurodegenerative diseases, including Alzheimer's disease (AD) (reviewed in[1][2]). In AD, amyloid precursor proteins are sequentially cleaved by β−secretase and γ−secretase, producing the amyloid β−protein (Aβ)[3]. Aβ peptides contain several alloforms with varying sequences of amino acids, dependent on the cleavage sites of γ−secretase.

In the next data set the test system is Aβ42 dimers. As to conditions: cited from earlier work. From the text:
We have developed a single−molecule atomic force microscopy (SMFS) approach enabling us to probe and characterize the interactions of the peptides and proteins in transient misfolded conformations. In this approach, the protein is end−immobilized on the AFM tip and substrate, allowing us to measure the interprotein interactions at the single−molecule level. The dynamics force spectroscopy (DFS) approach has been quite informative with respect to the lifetimes of transiently formed misfolded dimers (reviewed in[16]).

Where [2] appears, read: loading rates of 5000−7000 pN/s, ± SEM, total data 170 (Aβ40), 280 ([VPV]Aβ40).
The mark [3] stands for this setting: Supplementary Figs. S3b-S5b, similar analysis, loading rate not given.

Like-named read-outs stand apart in the source and are kept apart here.

With “Aβ40: alloform of human amyloid β−protein; cysteinyl−Aβ peptide, Cys residue placed at the N−terminus”, the “most probable rupture force” value came to 57.0 pN in the data set with misfolded Aβ dimers (loading rate 6215 pN/s, probability density function fit); 63.4 ± 3.2 pN with misfolded Aβ dimers (setting [2]); 63.4 pN in the data set with misfolded Aβ dimers (loading rates of 5000−7000 pN/s, ± SEM, total data 170 (Aβ40), 280 ([VPV]Aβ40), listed as Αβ40). In addition, the “rupture force alignment in the force versus contour length plot” value in the data set on misfolded Aβ dimers (scatter plot Fig. 3c, horizontal line, loading rates of 5000−7000 pN/s) is recorded as ~ 60 pN. For the same substance, the aggregation properties result with Aβ peptides is “similar”. For the same substance, the oligomerization pattern entry in the data set with Aβ peptides is “rapid equilibrium with coexisting monomers, dimers, trimers, and tetramers”.
“Aβ42: alloform of human amyloid β−protein with two additional C−terminal residues; cysteinyl−peptide”: the “most probable rupture force” value in the data set with misfolded Aβ dimers (setting [3]) was 66.2 ± 0.8 pN. In addition, in the data set on Aβ peptides, the oligomerization pattern entry was “prefers to form a pentamer/hexamer structure (paranucleus)”. In addition, the “toxicity compared with other alloforms” value in data set [1] is given as “appears to be the most toxic”. The “segments involved in dimer formation” value is listed as “formed dimers via the C−terminal segments” in the data set with Aβ42 dimers (in the absence of Cu^2+ cations) and “dimer formation involves the N−terminal segments” in the data set on Aβ42 dimers (with Cu^2+ cations).
Regarding “[VPV]Aβ40: Aβ40 mutant with VPV substitutions (Gly33Val−Val36Pro−Gly38Val); cysteinyl−peptide”, the “most probable rupture force, increase vs Αβ40 dimers” value in the data set on misfolded Aβ dimers ([VPV]Αβ40 vs Αβ40 (79.3 vs 63.4 pN), loading rates of 5000−7000 pN/s) is given as 25%. Further, the “most probable rupture force” value stood at 83.6 pN in the data set with misfolded Aβ dimers (loading rate 6068 pN/s, probability density function fit); 79.3 ± 1.5 pN with misfolded Aβ dimers (setting [2]); 79.3 pN in the data set with misfolded Aβ dimers (loading rates of 5000−7000 pN/s, ± SEM, total data 170 (Aβ40), 280 ([VPV]Aβ40), listed as [VPV]Αβ40). For the same substance, the “toxicity of oligomers / aggregates” value in data set [1] is listed as “elevated neurotoxicity”.
As to “[VPV]Aβ42: Aβ42 with VPV substitutions (Gly33Val−Val36Pro−Gly38Val); cysteinyl−peptide”, the “most probable rupture force” value in the data set with misfolded Aβ dimers (setting [3]) is reported as 67.9 ± 1.0 pN.
